Assay results published in patent US7884120B2, “2,4,5-trisubstituted imidazoles and their use as anti-microbial agents” (Lorus Therapeutics Inc., priority 2002, dated 2011).
In brackets after ≈: the same amount, converted by molar mass.

tested on: S. aureus, MRSA 1A-218, 1A-318, 1B-374, 1B-315, 1B-185, 1B387 and MSSA ATCC-6538, ATCC-29213; assay: MIC by standard microdilution method against S. aureus (MRSA and MSSA strains); assay type: cell-based; conditions: Staphylococcus aureus; against all 8 strains of S. aureus tested except where indicated; microdilution, Ca-MHB, 35° C., 24 hr; read-out: MIC
Description: A standard microdilution method (NCCLS, 2000; Document M7-A5) was used to determine the minimum inhibitory concentrations (MICs) against S. aureus, methicillin-resistant strains (MRSA); 1A-218, 1A-318, 1B-374, 1B-315, 1B-185, 1B387 (Simor et al. 1999 Can Commun Dis Rep; 25:105-108) and methicillin-sensitive strains (MSSA); ATCC-6538 and ATCC-29213. The MICs of some compounds were also determined against other Gram-positive bacteria: Enterococcus faecium (ATCC 51559), Enterococcus faecalis (ATCC-51299, ATCC-29212) and Staphylococcus epidermidis (ATCC-35983).
Mueller-Hinton broth (MHB) is recommended as the medium of choice for susceptibility testing of commonly isolated, rapidly growing aerobic organisms such as the Gram-positive bacteria included in this study. A “cation-adjusted Mueller-Hinton broth” (Ca-MHB) was prepared by first preparing standard MHB from a dehydrated base as recommended by the manufacturer.
Single colonies from fresh agar plates of the different bacterial cultures were sub-cultured overnight in 3 ml of Tryptic soy broth (TSB) at 37° C. with shaking at 250 RPM. After 18-20 hours of incubation, the absorbance at λ=600 nm (OD600) were determined for each culture and adjusted to a final OD600=0.1 (4.2×10^7 cfu/ml). Bacterial suspensions were then diluted 1:200 in sterile Ca-MHB for the in vitro susceptibility test, with each well of the microtitre plate containing approximately 2×10^5 cfu/ml.
Stock solutions of the different test compounds were prepared at concentrations of 1,280 μg/ml, 640 μg/ml, or 320 μg/ml in 50% DMSO (dimethyl sulfoxide). Serial two-fold dilutions were then prepared in 50% DMSO (the working concentrations were 1:10 of the stock concentrations in 100 μl culture suspensions). The filled microtitre plates were sealed in plastic bags and incubated at 35° C. for 24 hr in an ambient air incubator with shaking at 250 RPM. MIC values were determined as the lowest concentration where complete inhibition of the visible bacterial growth was observed by the unaided eye and confirmed by the measurement of the optical density (OD600).

Row | MIC [µg/mL] | SMILES
1 | 4 to 16 (≈ 10.4 to 41.5 µM) | Cc1[nH]c2ccccc2c1-c1nc(-c2ccc(F)cc2)c(-c2ccc(F)cc2)[nH]1 [Compound 7]
2 | 8 (≈ 19.5 µM) | COc1ccc(-c2nc(-c3c(C)[nH]c4ccccc34)[nH]c2-c2ccc(OC)cc2)cc1 [Compound 9]
3 | > 128 | Cc1[nH]c2ccccc2c1-c1nc(-c2ccccn2)c(-c2ccccn2)[nH]1 [Compound 15]
4 | 16 (≈ 39.1 µM) | COc1ccccc1-c1nc(-c2c(C)[nH]c3ccccc23)[nH]c1-c1ccccc1OC [Compound 17]
5 | 2 to 4 (≈ 4.14 to 8.28 µM) | Clc1ccc(-c2nc(-c3c[nH]c4ccc(Br)cc34)[nH]c2-c2ccc(Cl)cc2)cc1 [Compound 20]
6 | 8 to 16 (≈ 19.1 to 38.2 µM) | Cc1[nH]c2ccccc2c1-c1nc(-c2cccc(Cl)c2)c(-c2cccc(Cl)c2)[nH]1 [Compound 21]
7 | 4 to 8 (≈ 10.6 to 21.2 µM) | Cc1ccc(-c2nc(-c3c(C)[nH]c4ccccc34)[nH]c2-c2ccc(C)cc2)cc1 [Compound 23]
8 | 32 to 64 (≈ 88.5 to 177 µM) | Cc1[nH]c2ccccc2c1-c1nc(-c2cccs2)c(-c2cccs2)[nH]1 [Compound 25]
9 | 2 (≈ 4.69 µM) | Brc1ccc2[nH]cc(-c3nc(-c4cccs4)c(-c4cccs4)[nH]3)c2c1 [Compound 26]
10 | 32 to 64 (≈ 86.9 to 174 µM) | Cc1[nH]c2ccccc2c1-c1nc(-c2ccncc2)c(-c2ccc(F)cc2)[nH]1 [Compound 27]
11 | 2 (≈ 4.62 µM) | Fc1ccc(-c2[nH]c(-c3c[nH]c4ccc(Br)cc34)nc2-c2ccncc2)cc1 [Compound 28]
12 | > 128 | Fc1ccc(-c2[nH]c(-c3c[nH]c4ccccc34)nc2-c2ccccc2)cc1 [Compound 37]
13 | > 128 | Cc1[nH]c2ccccc2c1-c1nc(-c2ccc(Oc3ccccc3)cc2)c(-c2ccc(Oc3ccccc3)cc2)[nH]1 [Compound 38]
14 | > 128 | Brc1ccc2[nH]cc(-c3nc(-c4ccc(Oc5ccccc5)cc4)c(-c4ccc(Oc5ccccc5)cc4)[nH]3)c2c1 [Compound 39]
15 | > 128 | Cc1[nH]c2ccccc2c1-c1nc(-c2ccc(-c3ccccc3)cc2)c(-c2ccc(-c3ccccc3)cc2)[nH]1 [Compound 40]
16 | 4 to 8 (≈ 8.16 to 16.3 µM) | Brc1ccc2[nH]cc(-c3nc(-c4ccccc4)c(-c4ccc(-c5ccccc5)cc4)[nH]3)c2c1 [Compound 48]
17 | 4 (≈ 9.72 µM) | c1ccc(-c2ccc(-c3[nH]c(-c4c[nH]c5ccccc45)nc3-c3ccccc3)cc2)cc1 [Compound 49]
18 | > 64 | Brc1ccc2[nH]cc(-c3nc(-c4ccccc4)c(-c4ccc(N5CCCCC5)cc4)[nH]3)c2c1 [Compound 50]
19 | 16 (≈ 30.5 µM) | Clc1ccc(-c2nc(-c3c[nH]c4ccc(Br)cc34)[nH]c2-c2ccc(-c3ccccc3)cc2)cc1 [Compound 51]
20 | 2 to 4 (≈ 5.19 to 10.4 µM) | c1ccc(-c2[nH]c(-c3c[nH]c4ccccc34)nc2-c2cccc3ccccc23)cc1 [Compound 54]
21 | 2 (≈ 5.19 µM) | c1ccc(-c2[nH]c(-c3c[nH]c4ccccc34)nc2-c2ccc3ccccc3c2)cc1 [Compound 55]
22 | 1 (≈ 1.7 µM) | Ic1cccc(-c2nc(-c3c[nH]c4ccccc34)[nH]c2-c2cccc(I)c2)c1 [Compound 56]
23 | 16 (≈ 43 µM) | COc1ccc(-c2nc(-c3ccc(O)cc3)[nH]c2-c2ccc(OC)cc2)cc1 [Compound 57]
24 | 4 (≈ 10.2 µM) | Oc1ccc(-c2nc(-c3ccc(Br)cc3)c(-c3ccccc3)[nH]2)cc1 [Compound 58]
25 | 32 (≈ 76.3 µM) | O=C(O)c1ccc(-c2nc(-c3ccc(Br)cc3)c(-c3ccccc3)[nH]2)cc1 [Compound 59]
26 | 64 (≈ 164 µM) | O=C(O)c1ccc(-c2nc(-c3ccccc3)c(-c3cccc4ccccc34)[nH]2)cc1 [Compound 60]
27 | 8 (≈ 22.1 µM) | Oc1cccc(-c2nc(-c3ccccc3)c(-c3cccc4ccccc34)[nH]2)c1 [Compound 61]
28 | 2 (≈ 5.15 µM) | Oc1cccc(-c2nc(-c3ccc(-c4ccccc4)cc3)c(-c3ccccc3)[nH]2)c1 [Compound 62]

Row | SMILES | MIC [µg/mL]
29 | Cn1cc(-c2nc3c4ccccc4c4ccccc4c3[nH]2)c2ccccc21 [Compound 47] | > 128
30 | Brc1ccc2[nH]cc(-c3nc4c5cc(I)ccc5c5ccc(I)cc5c4[nH]3)c2c1 [Compound 52] | > 64
31 | Ic1ccc2c3ccccc3c3[nH]c(-c4c[nH]c5ccccc45)nc3c2c1 [Compound 53] | 1 (≈ 2.18 µM)
